*1 amine or outer side, *2 acyl side, *3 side chain or, on linkers, in order; H or OH if unused. Where a SMILES comes first, the peptide text is derived from it. Bridges are numbered along the chain shown (N, C = ends). [ ]: non-standard residue; d: D form. The star is where a group is joined. ξ: configuration not given here. Phe(4-CH2CH2COOH) = N[C@@H](Cc1ccc(CCC(=O)O)cc1)C(=O)O; Phe(3-CF3) = N[C@@H](Cc1cccc(C(F)(F)F)c1)C(=O)O; Ala(morpholin-4-yl) = N[C@@H](CN1CCOCC1)C(=O)O; Phe(4-COOH) = N[C@@H](Cc1ccc(C(=O)O)cc1)C(=O)O; Tyr(3-Cl) = N[C@@H](Cc1ccc(O)c(Cl)c1)C(=O)O; Bip = N[C@@H](Cc1ccc(-c2ccccc2)cc1)C(=O)O; NH(CH2)14COOH = O=C(O)CCCCCCCCCCCCCCN*; Phe(3-Me) = Cc1cccc(C[C@H](N)C(=O)O)c1; Phe(4-Me) = Cc1ccc(C[C@H](N)C(=O)O)cc1; γGlu = O=C(O)[C@H](CCC(=O)[*:2])N[*:1]; NH(CH2)12COOH = O=C(O)CCCCCCCCCCCCN*; Val(3-OH) = CC(C)(O)[C@H](N)C(=O)O; 4Pal = N[C@@H](Cc1ccncc1)C(=O)O; Cha = N[C@@H](CC1CCCCC1)C(=O)O; Cit = NC(=O)NCCC[C@H](N)C(=O)O; Ile(3ξ) = CCC(C)[C@H](N)C(=O)O; Thr(3ξ) = CC(O)[C@H](N)C(=O)O; Carboxymethyl = O=C(O)C*; NMeA = CN[C@@H](C)C(=O)O; Aun = NCCCCCCCCCCC(=O)O; Dab = NCC[C@H](N)C(=O)O; AEEA = NCCOCCOCC(=O)O; Sar = CNCC(=O)O

The target of the first test is T1, PD-1/PD-L1 interaction (PE-labeled human PD-L1-Ig binding to Jurkat cell line over-expressing human PD-1) (Homo sapiens, UniProt Q15116).
T1 construct: expressed in transfected cells; host or cells: Jurkat
T1 sequence (Q15116 25-288): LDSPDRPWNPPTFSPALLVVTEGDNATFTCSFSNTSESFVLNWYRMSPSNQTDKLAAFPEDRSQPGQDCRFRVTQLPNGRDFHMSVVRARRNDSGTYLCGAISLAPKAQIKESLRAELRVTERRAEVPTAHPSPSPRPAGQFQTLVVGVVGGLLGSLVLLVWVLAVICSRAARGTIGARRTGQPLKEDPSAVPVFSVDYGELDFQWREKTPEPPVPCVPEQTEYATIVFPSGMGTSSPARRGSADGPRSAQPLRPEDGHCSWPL
Kind of test: Jurkat-PD-1 Cell Binding High-Content Screening Assay (CBA). Particulars: Jurkat-hPD-1 cells, PE-labeled PD-L1-Ig 20 nM final; read-out: Jurkat HPD1 PDL1 IC50. The procedure, abridged: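 Jurkat cells overexpressing human PD-1 (8×10^3/well, DMEM + 10% FCS) preincubated with compound 2 h at 37 °C, then PE-labelled human PD-L1-Ig (20 nM final) for 1 h. Cells fixed in paraformaldehyde with Hoechst 33342; bound PD-L1 quantified by high-content imaging.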
For `CCC(C)[C@@H]1NC(=O)[C@H](Cc2ccc(-c3ccccc3)cc2)NC(=O)[C@H](CC(C)C)NC(=O)[C@H](Cc2c[nH]c3ccccc23)NC(=O)[C@H](CC(=O)O)NC(=O)[C@H](Cc2ccc(C(=O)O)cc2)NC(=O)[C@H](Cc2ccc(OCC(=O)O)cc2)NC(=O)CSC[C@@H](C(=O)N[C@H](CC(N)=O)C(=O)NCCOCCOCC(=O)NCCCCCCCCCCC(=O)O)NC(=O)[C@H](CO)NC(=O)[C@H](C(C)C)NC(=O)[C@H](CC2CCCCC2)NC(=O)[C@H](CCN)NC(=O)[C@@H](CC(C)C)NC(=O)[C@H](C)N(C)C1=O` (stereo partly drawn) [Example 2065] ({CH2CO}-Y(Carboxymethyl)[Phe(4-COOH)]DWL[Bip][Ile(3ξ)][NMeA][dL][Dab][Cha]VSC[dN][AEEA][Aun]-OH; thioether N-14), the IC50 was 17.3 nM.
Take `CC(=O)NCCCC[C@@H]1NC(=O)[C@H](C(C)C)NC(=O)[C@H](CC2CCCCC2)NC(=O)[C@H](CCN)NC(=O)[C@@H](CC(C)C)NC(=O)[C@H](C)N(C)C(=O)[C@H](Cc2ccc(O)cc2)NC(=O)[C@H](Cc2ccc(-c3ccccc3)cc2)NC(=O)[C@H](C(C)C)NC(=O)[C@H](Cc2cccc(C)c2)NC(=O)[C@H](CC(=O)O)NC(=O)[C@H](Cc2ccc(OCC(=O)O)cc2)NC(=O)[C@H](Cc2ccncc2)NC(=O)CSC[C@@H](C(=O)N(C)CC(=O)NCCCCCCCCCCC(=O)O)NC1=O` [Example 2276] ({CH2CO}-[4Pal]Y(Carboxymethyl)D[Phe(3-Me)]V[Bip]Y[NMeA][dL][Dab][Cha]VK(Ac)C[Sar][Aun]-OH; thioether N-14): the IC50 was 174 nM.
For `Cc1cccc(C[C@@H]2NC(=O)[C@H](CC(=O)O)NC(=O)[C@H](Cc3ccc(OCC(=O)O)cc3)NC(=O)[C@H](C(C)O)NC(=O)CSC[C@@H](C(=O)N(C)CC(=O)NCCCCCCCCCCC(=O)O)NC(=O)[C@H](CCCNC(N)=O)NC(=O)[C@H](C(C)C)NC(=O)[C@H](CC3CCCCC3)NC(=O)[C@H](CCN)NC(=O)[C@@H](CC(C)C)NC(=O)[C@H](C)N(C)C(=O)[C@H](C(C)C)NC(=O)[C@H](Cc3ccc(-c4ccccc4)cc3)NC(=O)[C@H](C(C)C)NC2=O)c1` (stereo partly drawn) [Example 2259] ({CH2CO}-[Thr(3ξ)]Y(Carboxymethyl)D[Phe(3-Me)]V[Bip]V[NMeA][dL][Dab][Cha]V[Cit]C[Sar][Aun]-OH; thioether N-14), the concentration for half-maximal inhibition (IC50) stood at 11.4 nM.
On the same count and under the same terms, the value for `Cc1cccc(C[C@@H]2NC(=O)[C@H](CC(=O)O)NC(=O)[C@H](Cc3ccc(CCC(=O)O)cc3)NC(=O)[C@H](CCCNC(=N)N)NC(=O)CSC[C@@H](C(=O)N[C@@H](CCN)C(=O)NCCCCCCCCCCC(=O)O)NC(=O)[C@@H](CO)NC(=O)[C@H](C(C)C)NC(=O)[C@H](CC3CCCCC3)NC(=O)[C@H](CCN)NC(=O)[C@@H](CC(C)C)NC(=O)[C@H](C)N(C)C(=O)[C@H](Cc3ccc(O)cc3)NC(=O)[C@H](Cc3ccc(-c4ccccc4)cc3)NC(=O)[C@H](C(C)C)NC2=O)c1` [Example 1267] ({CH2CO}-R[Phe(4-CH2CH2COOH)]D[Phe(3-Me)]V[Bip]Y[NMeA][dL][Dab][Cha]V[dS]C[Dab][Aun]-OH; thioether N-14) was 22.8 nM; that for `Cc1cccc(C[C@@H]2NC(=O)[C@H](CC(=O)O)NC(=O)[C@H](Cc3ccc(C(=O)O)cc3)NC(=O)[C@H](CCN)NC(=O)CSC[C@@H](C(=O)N[C@@H](CCN)C(=O)NCCCCCCCCCCC(=O)O)NC(=O)[C@H](CO)NC(=O)[C@H](C(C)(C)O)NC(=O)[C@H](CC3CCCCC3)NC(=O)[C@H](CCN)NC(=O)[C@@H](CC(C)C)NC(=O)[C@H](C)N(C)C(=O)[C@H](Cc3ccc(OCC(=O)O)cc3)NC(=O)[C@H](Cc3ccc(-c4ccccc4)cc3)NC(=O)[C@H](Cc3ccc(O)c(Cl)c3)NC2=O)c1` [Example 1293] ({CH2CO}-[Dab][Phe(4-COOH)]D[Phe(3-Me)][Tyr(3-Cl)][Bip]Y(Carboxymethyl)[NMeA][dL][Dab][Cha][Val(3-OH)]SC[Dab][Aun]-OH; thioether N-14) was 35.8 nM; that for `CC(C)C[C@H]1NC(=O)[C@H](C)N(C)C(=O)[C@H](CCC(N)=O)NC(=O)[C@H](Cc2ccc(-c3ccccc3)cc2)NC(=O)[C@H](Cc2ccc(C(=O)O)cc2)NC(=O)[C@H](Cc2cccc(C(F)(F)F)c2)NC(=O)[C@H](CC(=O)O)NC(=O)[C@H](Cc2ccc(OCC(=O)O)cc2)NC(=O)[C@H](Cc2ccc(C(=O)O)cc2)NC(=O)CSC[C@@H](C(=O)N[C@@H](CCN)C(=O)NCCCCCCCCCCCCC(=O)O)NC(=O)[C@H](Cc2c[nH]cn2)NC(=O)[C@H](C(C)(C)O)NC(=O)[C@H](CC2CCCCC2)NC(=O)[C@H](CCN)NC1=O` [Example 1145] ({CH2CO}-[Phe(4-COOH)]Y(Carboxymethyl)D[Phe(3-CF3)][Phe(4-COOH)][Bip]Q[NMeA][dL][Dab][Cha][Val(3-OH)]HC[Dab]-{NH(CH2)12COOH}; thioether N-14) was 11.2 nM.
On to `CC(C)C[C@H]1NC(=O)[C@H](C)N(C)C(=O)[C@H](CCCNC(N)=O)NC(=O)[C@H](Cc2ccc(-c3ccccc3)cc2)NC(=O)[C@H](Cc2ccc(C(=O)O)cc2)NC(=O)[C@H](Cc2cccc(C(F)(F)F)c2)NC(=O)[C@H](CC(=O)O)NC(=O)[C@H](Cc2ccc(OCC(=O)O)cc2)NC(=O)[C@H](CN2CCOCC2)NC(=O)CSC[C@@H](C(=O)N[C@@H](CCN)C(=O)NCCOCCOCC(=O)N[C@@H](CCC(=O)NCCOCCOCC(=O)NCCCCCCCCCCCCC(=O)O)C(=O)O)NC(=O)[C@H](CCC(=O)O)NC(=O)[C@H](C(C)C)NC(=O)[C@H](CC2CCCCC2)NC(=O)[C@H](CCN)NC1=O` [Example 1176] ({CH2CO}-[Ala(morpholin-4-yl)]Y(Carboxymethyl)D[Phe(3-CF3)][Phe(4-COOH)][Bip][Cit][NMeA][dL][Dab][Cha]VEC[Dab][AEEA][γGlu][AEEA]-{NH(CH2)12COOH}; thioether N-14), for which the IC50 was 15.6 nM.
Same read-out and setting: the value for `Cc1ccc(C[C@@H]2NC(=O)[C@H](Cc3cccc(C)c3)NC(=O)[C@H](CC(=O)O)NC(=O)[C@H](Cc3ccc(C(=O)O)cc3)NC(=O)[C@H](CCN)NC(=O)CSC[C@@H](C(=O)N[C@@H](CCN)C(=O)NCCCCCCCCCCC(=O)O)NC(=O)[C@H](CO)NC(=O)[C@H](C(C)(C)O)NC(=O)[C@H](CC3CCCCC3)NC(=O)[C@H](CCN)NC(=O)[C@@H](CC(C)C)NC(=O)[C@H](C)N(C)C(=O)[C@H](Cc3ccc(OCC(=O)O)cc3)NC(=O)[C@H](Cc3ccc(-c4ccccc4)cc3)NC2=O)cc1` [Example 1301] ({CH2CO}-[Dab][Phe(4-COOH)]D[Phe(3-Me)][Phe(4-Me)][Bip]Y(Carboxymethyl)[NMeA][dL][Dab][Cha][Val(3-OH)]SC[Dab][Aun]-OH; thioether N-14) was 26.9 nM; that for `Cc1cccc(C[C@@H]2NC(=O)[C@H](CC(=O)O)NC(=O)[C@H](Cc3ccc(OCC(=O)O)cc3)NC(=O)[C@H](C(C)O)NC(=O)CSC[C@@H](C(=O)N[C@@H](CCN)C(=O)NCCOCCOCC(=O)NCCCCCCCCCCC(=O)O)NC(=O)[C@H](CCC(N)=O)NC(=O)[C@H](C(C)C)NC(=O)[C@H](CC3CCCCC3)NC(=O)[C@H](CCN)NC(=O)[C@@H](CC(C)C)NC(=O)[C@H](C)N(C)C(=O)[C@H](Cc3ccc(OCC(=O)O)cc3)NC(=O)[C@H](Cc3ccc(-c4ccccc4)cc3)NC(=O)[C@H](Cc3ccc(C(=O)O)cc3)NC2=O)c1` (stereo partly drawn) [Example 2475] ({CH2CO}-[Thr(3ξ)]Y(Carboxymethyl)D[Phe(3-Me)][Phe(4-COOH)][Bip]Y(Carboxymethyl)[NMeA][dL][Dab][Cha]VQC[Dab][AEEA][Aun]-OH; thioether N-14) was 18.9 nM.
On the same count and under the same terms, the value for `CCC(C)[C@@H]1NC(=O)[C@H](Cc2ccc(-c3ccccc3)cc2)NC(=O)[C@H](C(C)C)NC(=O)[C@H](Cc2c[nH]c3ccccc23)NC(=O)[C@H](CC(=O)O)NC(=O)[C@H](Cc2ccc(OCC(=O)O)cc2)NC(=O)[C@H](Cc2ccncc2)NC(=O)CSC[C@@H](C(=O)NCCOCCOCC(=O)N[C@@H](CCCCN)C(=O)NCCCCCCCCCCC(=O)O)NC(=O)[C@H](CO)NC(=O)[C@H](C(C)C)NC(=O)[C@H](CC2CCCCC2)NC(=O)[C@H](CCN)NC(=O)[C@@H](CC(C)C)NC(=O)[C@H](C)N(C)C1=O` (stereo partly drawn) [Example 2033] ({CH2CO}-[4Pal]Y(Carboxymethyl)DWV[Bip][Ile(3ξ)][NMeA][dL][Dab][Cha]VSC[AEEA]K[Aun]-OH; thioether N-14) was 19.2 nM.

Staying with this test, now noted: PE-labeled PD-L1-Ig 20 nM final, Jurkat-hPD-1 cells; read-out: Jurkat HPD1 PDL1 IC50.
`CC(C)C[C@@H]1NC(=O)[C@H](Cc2c[nH]c3ccccc23)NC(=O)[C@H](CC(=O)O)NC(=O)[C@H](Cc2ccc(OCC(=O)O)cc2)NC(=O)[C@H](Cc2ccc(OCC(=O)O)cc2)NC(=O)CSC[C@@H](C(=O)N[C@@H](CCN)C(=O)NCCOCCOCC(=O)NCCOCCOCC(=O)NCCCCCCCCCCC(=O)O)NC(=O)[C@H](CCC(=O)O)NC(=O)[C@H](C(C)(C)O)NC(=O)[C@H](CC2CCCCC2)NC(=O)[C@H](CCN)NC(=O)[C@@H](CC(C)C)NC(=O)[C@H](C)N(C)C(=O)[C@H](CCC(N)=O)NC(=O)[C@H](Cc2ccc(-c3ccccc3)cc2)NC1=O` [Example 2517] ({CH2CO}-Y(Carboxymethyl)Y(Carboxymethyl)DWL[Bip]Q[NMeA][dL][Dab][Cha][Val(3-OH)]EC[Dab][AEEA][AEEA][Aun]-OH; thioether N-14): the IC50 was 30 nM.
The same measure, in the same setting: the value for `CC(C)C[C@H]1NC(=O)[C@H](C)N(C)C(=O)[C@H](CCC(N)=O)NC(=O)[C@H](Cc2ccc(-c3ccccc3)cc2)NC(=O)[C@H](Cc2ccc(OCC(=O)O)cc2)NC(=O)[C@H](Cc2cccc(C(F)(F)F)c2)NC(=O)[C@H](CC(=O)O)NC(=O)[C@H](Cc2ccc(OCC(=O)O)cc2)NC(=O)[C@H](Cc2ccc(OCC(=O)O)cc2)NC(=O)CSC[C@@H](C(=O)N[C@@H](CCN)C(=O)NCCOCCOCC(=O)NCCOCCOCC(=O)N[C@H](CCC(=O)NCCCCCCCCCCCCCCC(=O)O)C(=O)O)NC(=O)[C@H](Cc2cnc[nH]2)NC(=O)[C@H](C(C)(C)O)NC(=O)[C@H](CC2CCCCC2)NC(=O)[C@H](CCN)NC1=O` [Example 2627] ({CH2CO}-Y(Carboxymethyl)Y(Carboxymethyl)D[Phe(3-CF3)]Y(Carboxymethyl)[Bip]Q[NMeA][dL][Dab][Cha][Val(3-OH)]HC[Dab][AEEA][AEEA][dE](NH(CH2)14COOH)-OH; thioether N-14) was 164 nM.

As a reminder, the IC50 is the concentration needed to halve the response being measured.

Values taken from patent US20260070945A1, “MACROCYCLIC IMMUNOMODULATORS” (Bristol-Myers Squibb Company, priority 2022, published 2026).
